Results on 31 molecules are retold here after publication PMC6294263 (Stem Cell Reports, 2018).

Series [1] concerns hiPSC-CMs (Cor.4U cardiomyocytes). Nature of the series: calcium transient-based hiPSC-CM (CTCM) assay with cardiac hazard scoring. The following applies: for arrhythmic (EAD-like) events: tested concentrations of Figure 5; for EAD-like events: control drugs at control concentration (E-4031 30 nM, dofetilide 3 nM, cetirizine 1 μM).
From the text: Fluorescence imaging of intracellular calcium dynamics (i.e., calcium transients) enabled the evaluation of the spontaneous beating properties of hiPSC-CMs (Figure 2A) using the following parameters: (1) calcium transient duration at 90% of decay following the peak amplitude (CTD90), (2) beat rate (BR) representing the number of calcium transients (i.e., beats) per minute, and (3) amplitude (Amp), representing the difference between the minimum and the maximum (peak) calcium signal.
Effects on hiPSC-CMs were evaluated after a 30-min incubation period and normalized against the respective baseline recording, yielding a Δ% change in CTD90, BR, and Amp.
Cells were cultured with Cor.4U culture medium (Ax-M-HC250) in a humidified incubator at 37°C and 5% CO2, with medium being changed once a day. On the day of the experiment, the culture medium was replaced with Tyrode's solution (Sigma, No. T2397) supplemented with 10 mM HEPES together with KCl to represent isokalemic (4.2 mM K^+) conditions.
Briefly, Cal-520 was incubated for 45 min followed by a washout and a 30-min recovery before starting the experiments.
The spontaneous beating activity of hiPSC-CMs was assessed through measurement of the Ca^2+ fluorescence signal integrated over the whole well.
First, the experimental plates were put into the FDSS/μCell to stabilize for 10 min. Next, a baseline recording was run for 3 min followed by compound addition. The effect of a compound was recorded (5-min recording time) around 15 and 30 min after compound addition. CTD90, BR, and Amp were quantified for baseline and 30-min compound effects as the median value of all beats (calcium transients) measured within a 1-min interval of the recording. The recording around 15 min was used only for observation of EADs or fibrillation-like events. EADs were manually monitored and evaluated. Beat stop was defined after 30 min in case BR was <5 beats/min. Wells that temporarily stopped beating during compound addition but recovered at the 30-min time point were not defined as beat stop.
The responses were measured at baseline and at 30 min.
A further series has as its system hERG. The following applies: no reference given; read-out: half maximal inhibitory concentration [IC50] on hERG; cited from earlier work. Background: hERG is a cardiac potassium channel; its block is linked to QT prolongation.
The mark [2] stands for this setting: 30-min incubation, reference drugs.
[3] abbreviates: reference drugs, tested concentrations of Figure 5 (selected to cover the therapeutic free Cmax), 30-min incubation.
Setting [4] is: 3 nM (2-fold free Cmax), 30-min incubation, control drug over numerous studies.
The mark [5] stands for this setting: 0.1 μM, 30-min incubation, control drug over numerous studies, the rest in the high hazard zone.
Where [6] appears, read: 5 μM (free Cmax), 30-min incubation, control drug over numerous studies.

Structures are written as SMILES.

In the case of `CC[C@H]1[C@@H]2C[C@H]3[C@@H]4N(C)c5ccccc5[C@]45C[C@@H]([C@H]2[C@H]5O)N3[C@@H]1O` [Ajmaline], the “arrhythmic (EAD-like) events” value in series [1] (reference drugs) is on record as “caused arrhythmic events”. As for `CCN(CC)CCCN(c1ccccc1)C1Cc2ccccc2C1` [Aprindine], the “effect on CTD90” value in series [1] (setting [2]) is given as “CTD90 prolongation”. `CC(C)NCC(O)COc1ccc(CC(N)=O)cc1` (centres unmarked) [Atenolol]: the cardiac hazard label entry in series [1] (setting [3]) is “not identified for any potential hazard”. In the case of `COC(=O)C1=C(C)NC(C)=C([N+](=O)[O-])C1c1ccccc1C(F)(F)F` (centres unmarked) [BAYK8644], in series [1] (30-min incubation), the “effect on amplitude (Amp)” value is reported as “increase the Amp”. Also, the cardiac hazard label result in series [1] (setting [3]) is recorded as “high”.

As to `C[N+](C)(C)CCOC(N)=O` [Carbachol], the cardiac hazard label entry in series [1] (setting [3]) was “not identified for any potential hazard”. As for `O=C(O)COCCN1CCN(C(c2ccccc2)c2ccc(Cl)cc2)CC1` (centres unmarked) [Cetirizine], the “studies identified as no hazard” value in series [1] (1 μM (16-fold free Cmax), 30-min incubation, control drug over numerous studies) is listed as 99%. Further, the EAD-like events result in series [1] (30-min incubation) is recorded as “not observed any EAD-like event”. Turning to `CN(C)CCCC1(c2ccc(F)cc2)OCc2cc(C#N)ccc21` (centres unmarked) [Citalopram], in series [1] (setting [3]), the cardiac hazard label entry was “low”. For the molecule `CC(CCc1ccc(O)cc1)NCCc1ccc(O)c(O)c1` (centres unmarked) [Dobutamine], the “effect on beat rate (BR)” value in series [1] (setting [2]) was “strong BR increase”. Moreover, the cardiac hazard label result in series [1] (setting [3]) is on record as “low or high”. With `CN(CCOc1ccc(NS(C)(=O)=O)cc1)CCc1ccc(NS(C)(=O)=O)cc1` [Dofetilide], in series [1] (setting [4]), the “studies identified as high hazard” value is 14% and the “studies identified as very high hazard” value turned out to be 80%. In addition, the EAD-like events entry in series [1] (30-min incubation) is given as “provoked such EAD-like events”. Regarding `COc1ccc(C(=O)Nc2ccccc2CCC2CCCCN2C)cc1` (centres unmarked) [Encainide], the “arrhythmic (EAD-like) events” value in series [1] (reference drugs) is “caused arrhythmic events”. With `CN(C)CCC[C@@]1(c2ccc(F)cc2)OCc2cc(C#N)ccc21` [Escitalopram], in series [1] (at 3- to 10-fold the free Cmax), the cardiac hazard label entry is “high”. Regarding `O=C(Nc1ccc(Oc2ccccc2)cc1)c1cccc([N+](=O)[O-])c1` [ICA-105574], the “effect on CTD90” value in series [1] (setting [2]) is listed as “CTD90 shortening”. In addition, in series [1] (setting [3]), the cardiac hazard label result was “hazard identification”.

As to `CC(C)NCC(O)c1ccc(O)c(O)c1` (centres unmarked) [Isoprenaline], the “studies identified as low hazard” value in series [1] (setting [5]) was found to be 70%. In series [1] (30-min incubation), the “effect on amplitude (Amp)” value was “increase the Amp”. Further, in series [1] (setting [2]), the “effect on beat rate (BR)” value is “strong BR increase”. In addition, the cardiac hazard label result in series [1] (setting [3]) was “low or high”. With `COc1cc2c(cc1OC)CC(=O)N(CCCN(C)C[C@H]1Cc3cc(OC)c(OC)cc31)CC2` [Ivabradine], the IC50 with hERG was about 2400 nM.

For the molecule `CC(C)(Oc1ccc(Cl)cc1)C(=O)NC1C2CC3CC1CC(NS(C)(=O)=O)(C3)C2` (centres unmarked) [JNJ-303], the cardiac hazard label result in series [1] (setting [3]) is listed as “cannot be easily detected”. In the case of `CC1(C)Oc2ccc(C#N)cc2[C@@H](N2CCCC2=O)[C@@H]1O` [Levcromakalim], the “effect on CTD90” value in series [1] (setting [2]) was “CTD90 shortening”. Moreover, the cardiac hazard label entry in series [1] (setting [3]) is listed as “potentially hazardous compounds”. The like results for `CC(=O)c1c(O)c(C)c(O)c(Cc2c(O)c3c(c(C(=O)/C=C/c4ccccc4)c2O)OC(C)(C)C=C3)c1O` [Mallotoxin] were, in that order, “CTD90 shortening” and “hazard identification”.

In the case of `Cc1cccc(C)c1OCC(C)N` (centres unmarked) [Mexiletine], the cardiac hazard label entry in series [1] (setting [3]) is recorded as “low or high”. The same measure, in the same setting: as for `O=C(NCCO[N+](=O)[O-])c1cccnc1` [Nicorandil], the entry is “not shown to have any potential hazard risk”. With `COCCOC(=O)C1=C(C)NC(C)=C(C(=O)OC(C)C)C1c1cccc([N+](=O)[O-])c1` (centres unmarked) [Nimodipine], the “studies identified as low hazard” value in series [1] (setting [5]) worked out at 80%. The “effect on amplitude (Amp)” value in series [1] (30-min incubation) is “strongly decrease the Amp”. In the case of `Cc1cc2c(s1)Nc1ccccc1N=C2N1CCN(C)CC1` [Olanzapine], the cardiac hazard label result in series [1] (up to the highest tested concentration (100 nM), around the free Cmax) is given as “not identified with any hazard”. `C[C@@H]1O[C@@H](O[C@H]2C[C@@H](O)[C@]3(CO)[C@H]4[C@H](O)C[C@]5(C)[C@@H](C6=CC(=O)OC6)CC[C@]5(O)[C@@H]4CC[C@]3(O)C2)[C@H](O)[C@H](O)[C@H]1O` [Ouabain]: the cardiac hazard label entry in series [1] (setting [3]) was “high”. On to `O=C1NC(=O)C(c2ccccc2)(c2ccccc2)N1` [Phenytoin], for which, in series [1] (setting [6]), the “studies identified as low hazard” value is reported as 20% and the “studies identified as no hazard” value turned out to be 78%. For the same molecule, in series [1] (5 μM, 30-min incubation), the “incidence of beat stop (% of wells)” value was at most 50%. Moreover, the cardiac hazard label result in series [1] (setting [3]) was “low or high”. Take `CC(N/C(=N\C#N)Nc1ccncc1)C(C)(C)C` (centres unmarked) [Pinacidil]: the “effect on CTD90” value in series [1] (setting [2]) is “CTD90 shortening”. Besides, in series [1] (setting [3]), the cardiac hazard label entry is “potentially hazardous compounds”. On to `CCCNCC(O)COc1ccccc1C(=O)CCc1ccccc1` (centres unmarked) [Propafenone], for which the “effect on CTD90” value in series [1] (setting [2]) is “CTD90 prolongation”.

Turning to `CCC(=O)O[C@](Cc1ccccc1)(c1ccccc1)[C@H](C)CN(C)C` [Propoxyphene], the “effect on CTD90” value in series [1] (setting [2]) is “CTD90 prolongation”. In the case of `C=C[C@H]1C[N@@]2CC[C@H]1C[C@@H]2[C@@H](O)c1ccnc2ccc(OC)cc12` [Quinidine], the “arrhythmic (EAD-like) events” value in series [1] (reference drugs) was “caused arrhythmic events”. Take `O=C(c1ccc(OCCN2CCCCC2)cc1)c1c(-c2ccc(O)cc2)sc2cc(O)ccc12` [Raloxifene]: the “safety margin (tested concentration/free Cmax) at which a hazard was scored” value in series [1] (3–10 μM, negative control drug) is at least 2500 fold the free Cmax. For the same molecule, in series [1] (negative control drug, exception to the no hazard scoring), the “concentrations not scored as no hazard” value was in the range of 3000 to 10000 nM. In the case of `CC(C)(C)NCC(O)c1ccc(O)c(CO)c1` (centres unmarked) [Salbutamol], the “effect on beat rate (BR)” value in series [1] (setting [2]) is “strong BR increase”. The cardiac hazard label entry in series [1] (setting [3]) is “low or high”. With `O=C1NCCN1CCN1CCC(c2cn(-c3ccc(F)cc3)c3ccc(Cl)cc23)CC1` [Sertindole], the “safety margin (tested concentration/free Cmax) at which very high hazard (arrhythmic events) was scored” value in series [1] is “approximately 625 fold the free Cmax”. Further, in series [1] (1 μM, 30-min incubation), the cardiac hazard label entry was “very high”. Take `CCCCCNC(=N)N/N=C/c1c[nH]c2ccc(OC)cc12` [Tegaserod]: the cardiac hazard label result in series [1] (setting [3]) is given as “high”.
